Experimental findings from patent publication US7879881B2, “Piperidinyl compounds that selectively bind integrins” (Janssen Pharmaceutica NV, priority 2002, dated 2011) are described below.

Read-outs that look alike come from different tables or passages of the source.

The target of one assay is T1, Human αvβ3 (Homo sapiens, UniProt P05106+P06756).
T1 construct: purchased Chemicon International Inc., Temecula, Calif
The assay can be described thus: In Vitro Solid Phase Purified αvβ3 Binding Assay (vitronectin/αvβ3). To be noted: vitronectin binding to immobilized purified human αvβ3, mean ± spread. A digest of the protocol:
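Purified human αvβ3 immobilized at 1 μg/ml in Tris buffer with Ca, Mg and Mn; compounds competed with 2 nM vitronectin for 3 h at 37 °C. Bound vitronectin detected by anti-vitronectin antibody and peroxidase ABC, absorbance at 490 nm.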

In another assay the target is T2, human purified αVβ5 (Homo sapiens, UniProt P06756+P18084).
T2 construct: purchased Chemicon International, Inc
As to the kind of experiment: In Vitro Solid Phase Purified αcβ5 Binding Assay (vitronectin/αVβ5). Conditions: vitronectin binding to immobilized purified human αVβ5, mean ± spread. In short, it runs like this:
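Purified human integrin immobilized at 1 μg/ml in Tris buffer with Ca2+, Mg2+, Mn2+ and NaCl, then BSA-blocked. Compounds added just before 2 nM vitronectin, 3 h at 37 °C. Bound vitronectin detected by anti-vitronectin antibody with biotin/peroxidase (ABC) detection at 490 nm.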

Another assay addresses GP IIb/IIIa (Homo sapiens, UniProt P05106+P08514). As to the kind of experiment: In Vitro Solid Phase Purified GP IIb/IIIa Binding Assay (biotinylated fibrinogen). To be noted: biotinylated fibrinogen binding to immobilized purified GP IIb/IIIa, mean ± spread. A digest of the protocol: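 Purified GP IIb/IIIa coated overnight at 4° C, blocked with 5% BSA, then incubated with test compound and biotinylated fibrinogen for 2-4 h at RT in modified Tyrodes buffer. Bound fibrinogen detected with avidin-biotin HRP complex and o-phenylenediamine/H2O2 (citrate/phosphate pH 5.3), stopped with 2 N H2SO4.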

T1 sequence (P06756 31-889 limits assumed): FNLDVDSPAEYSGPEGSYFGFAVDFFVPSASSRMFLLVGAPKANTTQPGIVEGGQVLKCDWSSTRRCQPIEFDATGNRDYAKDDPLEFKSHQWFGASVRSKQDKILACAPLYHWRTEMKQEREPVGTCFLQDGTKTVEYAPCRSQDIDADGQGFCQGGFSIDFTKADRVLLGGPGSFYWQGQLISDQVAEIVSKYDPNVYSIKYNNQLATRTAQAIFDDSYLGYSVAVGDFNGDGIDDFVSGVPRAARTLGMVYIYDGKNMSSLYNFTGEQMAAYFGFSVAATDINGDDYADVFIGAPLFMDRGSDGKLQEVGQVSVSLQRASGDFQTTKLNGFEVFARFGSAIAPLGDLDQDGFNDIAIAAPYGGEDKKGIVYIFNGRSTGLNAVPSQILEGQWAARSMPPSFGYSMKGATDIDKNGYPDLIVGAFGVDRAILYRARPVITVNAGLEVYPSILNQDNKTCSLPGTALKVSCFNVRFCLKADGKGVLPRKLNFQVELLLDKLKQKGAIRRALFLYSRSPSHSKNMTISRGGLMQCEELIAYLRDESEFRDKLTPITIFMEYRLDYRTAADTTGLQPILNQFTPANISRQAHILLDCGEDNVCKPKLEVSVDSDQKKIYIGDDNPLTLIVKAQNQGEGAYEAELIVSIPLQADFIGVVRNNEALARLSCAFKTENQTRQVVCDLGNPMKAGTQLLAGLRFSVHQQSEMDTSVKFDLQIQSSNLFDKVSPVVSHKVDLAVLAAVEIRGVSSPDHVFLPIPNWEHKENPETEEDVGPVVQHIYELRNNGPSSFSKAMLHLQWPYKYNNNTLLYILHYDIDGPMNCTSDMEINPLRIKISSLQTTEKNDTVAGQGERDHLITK
T1 sequence (P06756 891-1048 partner limits assumed): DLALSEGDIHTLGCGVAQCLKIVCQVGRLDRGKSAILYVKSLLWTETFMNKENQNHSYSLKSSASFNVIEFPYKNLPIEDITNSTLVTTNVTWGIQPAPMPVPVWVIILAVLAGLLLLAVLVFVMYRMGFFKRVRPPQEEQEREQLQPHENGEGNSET
T1 sequence (P05106 27-788): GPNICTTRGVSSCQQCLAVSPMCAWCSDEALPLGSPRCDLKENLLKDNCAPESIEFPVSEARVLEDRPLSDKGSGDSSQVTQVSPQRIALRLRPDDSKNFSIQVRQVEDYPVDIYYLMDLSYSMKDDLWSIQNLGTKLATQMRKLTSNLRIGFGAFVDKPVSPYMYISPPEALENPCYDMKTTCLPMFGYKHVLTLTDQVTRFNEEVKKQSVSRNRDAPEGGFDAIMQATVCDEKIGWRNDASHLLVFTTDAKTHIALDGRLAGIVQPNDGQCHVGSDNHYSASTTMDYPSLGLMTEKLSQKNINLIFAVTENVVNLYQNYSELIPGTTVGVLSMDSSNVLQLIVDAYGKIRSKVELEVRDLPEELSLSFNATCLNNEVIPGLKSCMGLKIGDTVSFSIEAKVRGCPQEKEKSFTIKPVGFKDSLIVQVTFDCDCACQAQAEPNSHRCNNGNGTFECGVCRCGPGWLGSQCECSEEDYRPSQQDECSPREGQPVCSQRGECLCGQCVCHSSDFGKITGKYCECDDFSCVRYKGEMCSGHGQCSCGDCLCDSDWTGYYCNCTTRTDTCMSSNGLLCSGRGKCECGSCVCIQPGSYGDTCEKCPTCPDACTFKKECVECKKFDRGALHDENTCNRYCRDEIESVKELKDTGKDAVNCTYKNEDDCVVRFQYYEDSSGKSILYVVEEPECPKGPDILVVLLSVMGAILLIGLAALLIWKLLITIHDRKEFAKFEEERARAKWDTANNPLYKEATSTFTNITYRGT
T2 sequence (P06756 31-889 limits assumed): as the sequence (P06756 31-889 limits assumed) above
T2 sequence (P06756 891-1048 partner limits assumed): as the sequence (P06756 891-1048 partner limits assumed) above
T2 sequence (P18084 24-799): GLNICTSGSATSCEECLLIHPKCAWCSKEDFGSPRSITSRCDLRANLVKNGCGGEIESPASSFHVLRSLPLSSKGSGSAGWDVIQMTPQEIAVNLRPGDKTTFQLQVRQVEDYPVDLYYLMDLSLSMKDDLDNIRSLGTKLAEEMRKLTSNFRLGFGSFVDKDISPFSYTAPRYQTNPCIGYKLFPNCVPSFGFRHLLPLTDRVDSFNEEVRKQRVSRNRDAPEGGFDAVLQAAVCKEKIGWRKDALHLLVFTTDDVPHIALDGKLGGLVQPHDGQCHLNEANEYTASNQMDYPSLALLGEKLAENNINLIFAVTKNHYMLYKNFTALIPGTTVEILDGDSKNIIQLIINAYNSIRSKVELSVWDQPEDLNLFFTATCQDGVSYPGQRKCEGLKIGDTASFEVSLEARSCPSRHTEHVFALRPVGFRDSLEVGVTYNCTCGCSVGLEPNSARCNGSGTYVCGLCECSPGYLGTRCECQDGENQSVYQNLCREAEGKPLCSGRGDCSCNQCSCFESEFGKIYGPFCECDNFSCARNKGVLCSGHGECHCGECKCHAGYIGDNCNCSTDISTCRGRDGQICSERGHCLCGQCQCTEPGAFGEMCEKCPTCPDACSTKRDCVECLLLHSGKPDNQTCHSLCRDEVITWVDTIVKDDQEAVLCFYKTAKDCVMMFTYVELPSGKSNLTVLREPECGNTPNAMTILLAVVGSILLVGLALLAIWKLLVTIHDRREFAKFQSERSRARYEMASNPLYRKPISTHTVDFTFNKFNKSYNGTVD
Chain of GP IIb/IIIa (P08514 32-887 limits assumed): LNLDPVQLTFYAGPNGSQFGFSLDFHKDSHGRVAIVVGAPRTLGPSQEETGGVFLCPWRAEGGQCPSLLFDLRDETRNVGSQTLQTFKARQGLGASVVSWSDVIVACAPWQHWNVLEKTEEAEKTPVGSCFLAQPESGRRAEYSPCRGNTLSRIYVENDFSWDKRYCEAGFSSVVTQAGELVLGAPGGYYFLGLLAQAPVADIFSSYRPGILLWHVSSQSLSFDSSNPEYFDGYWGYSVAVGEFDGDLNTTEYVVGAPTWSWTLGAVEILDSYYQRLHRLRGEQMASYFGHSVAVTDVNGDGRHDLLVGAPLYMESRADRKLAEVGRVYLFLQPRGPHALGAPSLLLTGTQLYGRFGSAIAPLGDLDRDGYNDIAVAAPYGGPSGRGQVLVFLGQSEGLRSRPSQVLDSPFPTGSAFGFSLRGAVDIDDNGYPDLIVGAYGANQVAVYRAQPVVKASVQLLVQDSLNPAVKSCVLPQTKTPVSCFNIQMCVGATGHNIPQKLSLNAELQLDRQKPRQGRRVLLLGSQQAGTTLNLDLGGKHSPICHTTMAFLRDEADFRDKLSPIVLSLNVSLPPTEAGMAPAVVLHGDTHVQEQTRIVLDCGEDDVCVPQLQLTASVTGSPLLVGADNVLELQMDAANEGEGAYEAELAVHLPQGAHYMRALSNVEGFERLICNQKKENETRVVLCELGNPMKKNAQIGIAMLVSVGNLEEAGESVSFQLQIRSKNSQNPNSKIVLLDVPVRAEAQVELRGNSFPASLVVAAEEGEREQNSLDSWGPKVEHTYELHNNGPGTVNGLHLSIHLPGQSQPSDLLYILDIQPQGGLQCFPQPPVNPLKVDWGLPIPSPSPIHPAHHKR
Chain of GP IIb/IIIa (P08514 891-1039 partner limits assumed): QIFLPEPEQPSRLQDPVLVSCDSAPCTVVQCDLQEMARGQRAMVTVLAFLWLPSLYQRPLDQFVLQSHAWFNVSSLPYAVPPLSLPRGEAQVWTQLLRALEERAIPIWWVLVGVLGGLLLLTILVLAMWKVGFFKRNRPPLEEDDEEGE
Chain of GP IIb/IIIa (P05106 27-788): as the sequence (P05106 27-788) above

Take `CC1=NCC(C(CC(=O)O)CC2CCN(C(=O)CCc3ccc4c(n3)NCCC4)CC2)CN1` (stereo not drawn) [Cpd 18, 1,4,5,6-tetrahydro-2-methyl-β-[[1-[1-oxo-3-(5,6,7,8-tetrahydro-1,8-naphthyridin-2-yl)propyl]-4-piperidinyl]methyl]-5-pyrimidinepropanoic acid]: the values for the IC50 on Human αvβ3 (read-out: αvβ3IC50), on human purified αVβ5 (read-out: αvβ5 IC50) and on GP IIb/IIIa (read-out: αIIbβ3 IC50) were more than 5 µM, more than 5 µM and more than 50 µM, respectively.

Consider `COc1ccc(C(CC(=O)O)CC2CCN(C(=O)CCc3ccc4c(n3)NCCC4)CC2)cc1F` (stereo not drawn) [Cpd 42, β-(3-fluoro-4-methoxyphenyl)-1-[1-oxo-3-(5,6,7,8-tetrahydro-1,8-naphthyridin-2-yl)propyl]-4-piperidinebutanoic acid], for which the IC50 at Human αvβ3 (read-out: αvβ3IC50) was 0.0007 ± 0.0003 µM; on human purified αVβ5 (read-out: αvβ5 IC50), 0.0189 ± 0.0046 µM; at GP IIb/IIIa (read-out: αIIbβ3 IC50) it was 5 ± 0.74 µM.

As to `O=C(O)CC(CCC1CCN(C(=O)c2cccc(NC3=NCCCC3)c2)CC1)c1cnc2ccccc2c1` (stereo not drawn) [Cpd 50, β-[2-[1-[3-[(3,4,5,6-tetrahydro-2-pyridinyl)amino]benzoyl]-4-piperidinyl]ethyl]-3-quinolinepropanoic acid], the IC50 was 0.0156 ± 0.0044 µM at Human αvβ3 (read-out: αvβ3IC50), 0.676 µM on human purified αVβ5 (read-out: αvβ5 IC50) and 0.19 ± 0.04 µM at GP IIb/IIIa (read-out: αIIbβ3 IC50).

Take `O=C(O)CCCC1CCN(C(=O)CCc2ccc3c(n2)NCCC3)CC1` [Cpd 61]: the figures for the IC50 on Human αvβ3 (read-out: αvβ3IC50), on human purified αVβ5 (read-out: αvβ5 IC50) and on GP IIb/IIIa (read-out: αIIbβ3 IC50) were 0.0045 ± 0.0007 µM, 0.0253 ± 0.0073 µM and 37.5 ± 31.6 µM, respectively.

Regarding `O=C(O)CC(c1cnc2c(c1)CCCC2)C1CCN(C(=O)CCCc2ccc3c(n2)NCCC3)CC1` (single isomer, unassigned) [Cpd 58b, 5,6,7,8-Tetrahydro-β-[1-[1-oxo-4-(5,6,7,8-tetrahydro-1,8-naphthyridin-2-yl)butyl]-4-piperidinyl]-3-quinolinepropanoic acid], the IC50 at Human αvβ3 (read-out: αvβ3IC50) was 0.083 ± 0.02 µM; at human purified αVβ5 (read-out: αvβ5 IC50), 0.576 ± 0.149 µM; at GP IIb/IIIa (read-out: αIIbβ3 IC50), 35.5 µM.

`O=C(O)CC(c1cnc2c(c1)CCCC2)C1CCN(C(=O)CCCc2ccc3c(n2)NCCC3)CC1` (single isomer, unassigned) [Cpd 58a, 5,6,7,8-Tetrahydro-β-[1-[1-oxo-4-(5,6,7,8-tetrahydro-1,8-naphthyridin-2-yl)butyl]-4-piperidinyl]-3-quinolinepropanoic acid]: the values for the IC50 at Human αvβ3 (read-out: αvβ3IC50), at human purified αVβ5 (read-out: αvβ5 IC50) and at GP IIb/IIIa (read-out: αIIbβ3 IC50) were 0.0004 ± 0.0003 µM, 0.0323 ± 0.0082 µM and 1.44 ± 0.39 µM, respectively.

With `O=C(O)CC(c1ccc2c(c1)OCO2)C1CCN(C(=O)CCCNc2ccccn2)CC1` (stereo not drawn) [Cpd 24, β-(1,3-benzodioxol-5-yl)-1-[1-oxo-4-(2-pyridinylamino)butyl]-4-piperidinepropanoic acid], the IC50 was found to be 0.307 µM on Human αvβ3 (read-out: αvβ3IC50), 0.387 µM on human purified αVβ5 (read-out: αvβ5 IC50) and 19.3 µM at GP IIb/IIIa (read-out: αIIbβ3 IC50).

Consider `O=C(O)CC(c1ccc2c(c1)OCO2)C1CCN(C(=O)Cc2ccc3c(n2)NCCC3)CC1` (stereo not drawn) [Cpd 16, β-(1,3-benzodioxol-5-yl)-1-[(5,6,7,8-tetrahydro-1,8-naphthyridin-2-yl)acetyl]-4-piperidinepropanoic acid], for which the IC50 turned out to be 0.281 µM at Human αvβ3 (read-out: αvβ3IC50), 0.775 µM on human purified αVβ5 (read-out: αvβ5 IC50) and 25.4 µM on GP IIb/IIIa (read-out: αIIbβ3 IC50).

For the compound `COc1ncc(C(CC(=O)O)CC2CCN(C(=O)CCc3ccc4c(n3)NCCC4)CC2)c(OC)n1` (stereo not drawn) [Cpd 47, 2,4-dimethoxy-β-[[1-[1-oxo-3-(5,6,7,8-tetrahydro-1,8-naphthyridin-2-yl)propyl]-4-piperidinyl]methyl]-5-pyrimidinepropanoic acid], the IC50 on Human αvβ3 (read-out: αvβ3IC50) came out at 0.0014 ± 0.0007 µM; at human purified αVβ5 (read-out: αvβ5 IC50), 0.0046 ± 0.0017 µM; on GP IIb/IIIa (read-out: αIIbβ3 IC50), 1.47 ± 0.37 µM.

Turning to `O=C(O)CC(CC1CCN(C(=O)CCc2ccc3c(n2)NCCC3)CC1)c1cccnc1` (stereo not drawn) [Cpd 45, β-[[1-[1-oxo-3-(5,6,7,8-tetrahydro-1,8-naphthyridin-2-yl)propyl]-4-piperidinyl]methyl]-3-pyridinepropanoic acid], the IC50 on Human αvβ3 (read-out: αvβ3IC50) worked out at 0.0008 ± 0.0001 µM; on human purified αVβ5 (read-out: αvβ5 IC50), 0.0017 ± 0.0003 µM; on GP IIb/IIIa (read-out: αIIbβ3 IC50), 6.61 ± 2.85 µM.

For the compound `O=C(O)CC(C1CCN(C(=O)CCCc2ccc3c(n2)NCCC3)CC1)C1CNc2ccccc2C1` (stereo not drawn) [Cpd 5, 1,2,3,4-Tetrahydro-β-[1-[1-oxo-4-(5,6,7,8-tetrahydro-1,8-naphthyridin-2-yl)butyl]-4-piperidinyl]-3-quinolinepropanoic acid], the IC50 amounted to 0.0037 ± 0.0014 µM at Human αvβ3 (αvβ3IC50 (uM)), 0.261 ± 0.0569 µM on human purified αVβ5 (αvβ5 IC50 (uM)) and 14.8 ± 0.68 µM on GP IIb/IIIa (αIIbβ3 IC50 (uM)).

Turning to `CC(C)(C)OC(=O)CCCC1CCN(C(=O)CCc2ccc3c(n2)NCCC3)CC1` [Cpd 70, 4-[1-(3-5,6,7,8-Tetrahydro-[1,8]naphthyridin-2-yl-propionyl)-piperidin-4-yl]-butyric acid tert-butyl ester], the IC50 at Human αvβ3 (read-out: αvβ3IC50) was more than 0.5 µM; at human purified αVβ5 (read-out: αvβ5 IC50), more than 1 µM; at GP IIb/IIIa (read-out: αIIbβ3 IC50), more than 50 µM.

Consider `O=C(O)CCC1CCN(C(=O)Cc2cccc(NC3=NCCCN3)c2)CC1` [Cpd 1, 1-[[3-[(1,4,5,6-Tetrahydro-2-pyrimidinyl)amino]phenyl]acetyl]-4-piperidinepropanoic acid], for which the values for the IC50 on Human αvβ3 (read-out: αvβ3IC50), at human purified αVβ5 (read-out: αvβ5 IC50) and at GP IIb/IIIa (read-out: αIIbβ3 IC50) were 0.056 ± 0.007 µM, more than 5 µM and 4.33 ± 0.15 µM, respectively.

Take `O=C(O)CC(CC1CCN(C(=O)CCc2ccc3c(n2)NCCC3)CC1)C1CNc2ccccc2C1` (stereo not drawn) [Cpd 19, 1,2,3,4-tetrahydro-β-[[1-[1-oxo-3-(5,6,7,8-tetrahydro-1,8-naphthyridin-2-yl)propyl]-4-piperidinyl]methyl]-3-quinolinepropanoic acid]: the IC50 is 0.0025 ± 0.0004 µM on Human αvβ3 (read-out: αvβ3IC50), 0.0171 ± 0.0025 µM at human purified αVβ5 (read-out: αvβ5 IC50) and 13.8 ± 9.69 µM on GP IIb/IIIa (αIIbβ3 IC50 (uM)).

In the case of `CCNc1cccc(C(CC(=O)O)CC2CCN(C(=O)CCc3ccc4c(n3)NCCC4)CC2)c1` (racemic) [Cpd 78, 3-(3-Ethylamino-phenyl)-4-[1-(3-5,6,7,8-tetrahydro-[1,8]naphthyridin-2-yl-propionyl)-piperidin-4-yl]-butyric acid], the IC50 amounted to 0.0057 ± 0.0001 µM on Human αvβ3 (read-out: αvβ3IC50), 0.026 ± 0.003 µM on human purified αVβ5 (read-out: αvβ5 IC50) and 24.7 µM on GP IIb/IIIa (read-out: αIIbβ3 IC50).

For `COc1ccc(C(CC(=O)O)CC2CCN(C(=O)CCc3ccc4c(n3)NCCC4)CC2)cc1` (racemic) [Cpd 60], the IC50 at Human αvβ3 (read-out: αvβ3IC50) turned out to be 0.001 ± 0.0008 µM; on human purified αVβ5 (read-out: αvβ5 IC50) it was 0.0309 ± 0.0006 µM; at GP IIb/IIIa (read-out: αIIbβ3 IC50) it was 4.53 ± 2.47 µM.

For the compound `O=C(O)CC(CC1CCN(C(=O)CCc2ccc3c(n2)NCCC3)CC1)c1ccc2c(c1)OCO2` (stereo not drawn) [Cpd 11, β-(1,3-Benzodioxol-5-yl)-1-[1-oxo-3-(5,6,7,8-tetrahydro-1,8-naphthyridin-2-yl)propyl]-4-piperidinebutanoic acid], the IC50 at Human αvβ3 (read-out: αvβ3IC50) is 0.0011 ± 0.0002 µM; at human purified αVβ5 (read-out: αvβ5 IC50) it was 0.0023 ± 0.0009 µM; on GP IIb/IIIa (read-out: αIIbβ3 IC50), 2.52 ± 0.3 µM.

On to `O=C(O)CC(CC1CCN(C(=O)CCc2ccc3c(n2)NCCC3)CC1)c1ccc2c(c1)OCC2` (stereo not drawn) [Cpd 36, β-(2,3-dihydro-6-benzofuranyl)-1-[1-oxo-3-(5,6,7,8-tetrahydro-1,8-naphthyridin-2-yl)propyl]-4-piperidinebutanoic acid], for which the IC50 was 0.0008 ± 6e-05 µM on Human αvβ3 (read-out: αvβ3IC50), 0.0007 ± 0.0002 µM at human purified αVβ5 (read-out: αvβ5 IC50) and 3.11 ± 0.04 µM at GP IIb/IIIa (read-out: αIIbβ3 IC50).

As for `COc1ccc(C(CC(=O)O)CC2CCN(C(=O)CCc3ccc4c(n3)NCCC4)CC2)cn1` (single isomer, unassigned) [Cpd 28a, 6-methoxy-β-[[1-[1-oxo-3-(5,6,7,8-tetrahydro-1,8-naphthyridin-2-yl)propyl]-4-piperidinyl]methyl]-3-pyridinepropanoic acid], the figures for the IC50 at Human αvβ3 (read-out: αvβ3IC50), at human purified αVβ5 (read-out: αvβ5 IC50) and at GP IIb/IIIa (αIIbβ3 IC50 (uM)) were 0.0003 ± 0.0002 µM, 0.0042 ± 0.0018 µM and 1.83 ± 0.57 µM, respectively.

With `O=C(O)CC(CC1CCN(C(=O)CCCc2ccc3c(n2)NCCC3)CC1)c1cc(F)cc(F)c1` (stereo not drawn) [Cpd 38, β-(3,5-difluorophenyl)-1-[1-oxo-4-(5,6,7,8-tetrahydro-1,8-naphthyridin-2-yl)butyl]-4-piperidinebutanoic acid], the IC50 on Human αvβ3 (read-out: αvβ3IC50) is 0.484 µM; on human purified αVβ5 (read-out: αvβ5 IC50) it was 2.11 µM; at GP IIb/IIIa (read-out: αIIbβ3 IC50), more than 50 µM.

On to `O=C(O)CC(CC1CCN(C(=O)CCc2ccc3c(n2)NCCC3)CC1)c1ccc2ccccc2c1` (stereo not drawn) [Cpd 56, β-(2-naphthalenyl)-1-[1-oxo-3-(5,6,7,8-tetrahydro-1,8-naphthyridin-2-yl)propyl]-4-piperidinebutanoic acid], for which the IC50 at Human αvβ3 (read-out: αvβ3IC50) was determined as 0.0019 ± 0.0006 µM; at human purified αVβ5 (read-out: αvβ5 IC50), 0.0245 ± 0.0065 µM; at GP IIb/IIIa (read-out: αIIbβ3 IC50), 39.1 ± 0.785 µM.

`CCOC(=O)CCCC1CCN(C(=O)CCc2ccc3c(n2)NCCC3)CC1` [Cpd 68, 4-[1-(3-5,6,7,8-Tetrahydro-[1,8]naphthyridin-2-yl-propionyl)-piperidin-4-yl]-butyric acid ethyl ester]: the figures for the IC50 at Human αvβ3 (read-out: αvβ3IC50), at human purified αVβ5 (read-out: αvβ5 IC50) and at GP IIb/IIIa (read-out: αIIbβ3 IC50) were 0.413 µM, more than 1 µM and 35.6 µM, respectively.

Consider `O=C(O)CC(CC1CCN(C(=O)CCc2ccc3c(n2)NCCC3)CC1)C1CNc2ccccc2C1` (single isomer, unassigned) [Cpd 19-2, 1,2,3,4-tetrahydro-β-[[1-[1-oxo-3-(5,6,7,8-tetrahydro-1,8-naphthyridin-2-yl)propyl]-4-piperidinyl]methyl]-3-quinolinepropanoic acid], for which the IC50 on Human αvβ3 (read-out: αvβ3IC50) turned out to be 0.0013 ± 0.0001 µM; on human purified αVβ5 (read-out: αvβ5 IC50) it was 0.0092 ± 0.0004 µM; on GP IIb/IIIa (read-out: αIIbβ3 IC50), 12.9 µM.
